Data from US6849405B2, “Translation enhancer element of the human amyloid precursor protein gene” (The Brigham and Women's Hospital, Inc., priority 1997, dated 2005).

Key:
Type in all cases: cell-based, human
APP-mRNA = assay: Northern blot of APP-mRNA, primary astrocytes
Method: (§1) Total RNA (10 μg) was extracted from primary astrocytes and astrocytoma cells with a RNA-STAT kit (Tel-Test). RNA samples were denatured in 50% formamide/2.2 M formaldehyde/20 mM MOPS/5 mM sodium acetate/0.5 mM EDTA, pH 7.4, at 60° C. for 10 minutes, electrophoresed on 1.0% agarose-formaldehyde gels, blotted onto Hybond-N filters and immobilized by UV crosslinking and heating filters to 80° C. Filters were prehybridized for 3 hours and hybridized overnight in a solution consisting of 50% formamide, […] denatured salmon sperm DNA, 5×SSC, 0.1% sodium dodecyl sulfate and 5×Denhardt's solution. Following hybridization, filters were washed twice for a total of 1 hour in 2×SSC/0.2% sodium dodecyl sulfate at room temperature and twice each for a total of 1 hour in 0.5×SSC/0.1% sodium dodecyl sulfate at 55° C. Equal loading was verified by ethidium bromide staining, non-specific hybridization of the ACT probe to the 28S rRNA, and by standardized hybridization to the GAPDH cDNA probe as an internal standard. The APP cDNA probe corresponded to the unique internal 1 kb fragment gel purified from the 3 kb APP cDNA (Kang et al. Nature 325: 733 (1987)), the ACT cRNA probe to a PstI/SacI fragment (536-943) in the human ACT cDNA (Chandra, et al., Biochemistry 22: 5055 (1983)) and the GAPDH probe to the human GAPDH gene (Tokunaga, et al., Cancer Res. 47: 5616 (1987)).

[1] = system: alpha-1 antichymotrypsin (ACT) mRNA; assay: Northern blot of ACT-mRNA, primary astrocytes
Method: as §1

pSV2CAT parental vector = assay: CAT reporter activity in astrocytoma cells transfected with parental vector pSV2CAT
Method: Astrocytoma and neuroblastoma cells were transfected with pSV2CAT or pSV2(APP)CAT by lipofection. Briefly, lipofectamine reagent (Boehringer) was added to DMEM (without serum) and allowed to sit 30 minutes at room temperature. Plasmids (10 μg) in an equal volume of DMEM were then added, and, after sitting for 45 minutes at room temperature, the lipid/DNA solution was added to 60% confluent cells on 100×20 mm cell culture plates. After 4 hours, this solution was removed, and the cells were washed twice in DMEM (without serum). Fresh DMEM medium (containing 10% fetal calf serum) was added. At this time, treatments were administered which included: (1) 0.5 ng/ml IL-1α; (2) 0.5 ng/ml IL-1β; (3) 5 μM Fe2TF (holo-transferrin); and (4) unstimulated controls. […]
After harvesting, cells were resuspended in 100 μl 0.25 M Tris, pH 7.8, and subjected to three cycles of freezing (liquid nitrogen) and […] (37° C.) to lyse cells. […] Protein concentration was determined by a Biorad assay, and exactly 20 μg of lysate was added to a CAT reaction mix containing 50 μl 1M Tris, pH 7.8, 20 μl acetylcoenzyme-A (3.5 mg/ml) and […] ^14C-labeled chloramphenicol (25 mCi/ml). […] For quantitative analysis, the areas on the TLC plates which aligned with dots on the film were excised and the radioactivity was counted in 5 ml of scintillation cocktail (Econofluor) using a scintillation counter (Hewlett Packard). […]

| Substance | APP-mRNA levels (Northern blot, densitometry) (APP-mRNA) | increase in ACT-mRNA levels (densitometry) [1] | effect on CAT activity, parental vector (pSV2CAT parental vector) |
| --- | --- | --- | --- |
| interleukin-1α [IL-1α] | unchanged | greater than 10 fold | – |
| interleukin-1β [IL-1β] | – | – | no effect |
